The supplement of paper PMC10307832

Experiments:
Test in all cases: relative viability (nuclei count vs DMSO), 5 days (fraction); higher = more cells survive
Navitoclax = compound: CC1(C)CCC(c2ccc(Cl)cc2)=C(CN2CCN(c3ccc(C(=O)NS(=O)(=O)c4ccc(N[C@H](CCN5CCOCC5)CSc5ccccc5)c(S(=O)(=O)C(F)(F)F)c4)cc3)CC2)C1 [Navitoclax]
Procedure, shortened: (§1)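 For viability, nuclei in each treated well were divided by nuclei in vehicle wells and the median across plates was taken. Lung cancer cell lines in 1536-well plates were pinned with five library-drug doses (not always all listed) spaced by √10, cultured 5 days without medium change, and imaged at 4× after Hoechst staining, with plates passing only at control CV below 25% and at least one doubling.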

AZD7762 = compound: NC(=O)Nc1cc(-c2cccc(F)c2)sc1C(=O)N[C@H]1CCCNC1 [AZD7762]
Procedure, shortened: as §1

[1] = compound: O=C(O)c1ccc(-c2c[nH]c3ncc(-c4ccccc4)cc23)cc1C1CCCC1
Procedure, shortened: as §1

XAV939 = compound: Oc1nc(-c2ccc(C(F)(F)F)cc2)nc2c1CSCC2 [XAV939]
Procedure, shortened: as §1

C-75 = compound: CCCCCCCC[C@H]1[C@@H](C(=C)C(=O)O1)C(=O)O [C-75]
Procedure, shortened: as §1

| Cell Line | relative viability (Navitoclax; 0.005 µM) | relative viability (Navitoclax; 0.01581 µM) | relative viability (Navitoclax; 0.05 µM) | relative viability (Navitoclax; 0.1581 µM) | relative viability (Navitoclax; 0.5 µM) | relative viability (AZD7762; 0.01 µM) | relative viability (AZD7762; 0.03162 µM) | relative viability (AZD7762; 0.1 µM) | relative viability (AZD7762; 0.3162 µM) | relative viability (AZD7762; 1 µM) | relative viability ([1]; 0.04 µM) | relative viability ([1]; 0.1265 µM) | relative viability ([1]; 0.4 µM) | relative viability ([1]; 1.265 µM) | relative viability (XAV939; 0.08 µM) | relative viability (XAV939; 0.253 µM) | relative viability (XAV939; 0.8 µM) | relative viability (XAV939; 2.53 µM) | relative viability (C-75; 0.08 µM) | relative viability (C-75; 0.253 µM) | relative viability (C-75; 0.8 µM) | relative viability (C-75; 2.53 µM) | relative viability (C-75; 8 µM) | relative viability (Navitoclax; 0.5 µM, anchor plate) | relative viability (AZD7762; 0.2 µM, anchor plate) |
| --- | --- | --- | --- | --- | --- | --- | --- | --- | --- | --- | --- | --- | --- | --- | --- | --- | --- | --- | --- | --- | --- | --- | --- | --- | --- |
| NCI-H661 | 0.985 | 0.995 | 1.05 | 0.916 | 0.935 | 1.03 | 1.11 | 1.1 | 0.979 | 0.558 | 0.915 | 1.02 | 0.969 | 1.01 | 1.02 | 0.952 | 0.945 | 0.956 | 0.983 | 1.01 | 0.98 | 0.911 | 0.94 |  |  |
| NCI-H727 | 0.886 | 1.18 |  | 0.87 | 0.894 | 0.838 | 1.18 | 0.953 | 0.764 | 0.444 | 0.995 | 1.01 | 0.986 | 0.928 | 1.11 | 0.731 | 0.899 | 0.975 | 0.824 | 1.4 | 0.968 | 0.73 | 1.04 | 0.491 | 0.576 |
| NCI-H838 | 0.964 | 1.02 | 1.08 | 1 | 0.97 | 1.04 | 0.982 | 1.01 | 0.942 | 0.599 | 0.972 | 1.16 | 0.994 | 0.926 | 0.965 | 0.892 | 0.805 | 0.624 | 0.989 | 0.82 | 0.941 | 0.867 | 0.895 | 1.21 | 0.944 |
| NCI-H1299 | 1 | 1.05 | 1 | 1.01 | 1.03 | 1.06 | 1.01 | 1.06 | 1.02 | 0.56 | 1.03 | 1.04 | 0.957 | 0.878 | 1.04 | 0.939 | 1.06 | 1.03 | 1.01 | 0.98 | 1.02 | 0.899 | 1.03 | 1.03 |  |
| NCI-H1355 | 1.03 | 1.07 | 0.956 | 0.975 | 0.986 | 0.874 | 0.979 | 0.938 | 1.09 | 0.785 | 1.02 | 1.14 | 0.979 | 0.744 | 0.938 | 0.831 | 0.826 | 0.759 | 0.966 | 1.01 | 0.921 | 0.89 | 0.982 | 1.01 | 0.819 |
| NCI-H1395 | 0.998 | 0.943 | 0.922 | 0.905 | 1 | 0.931 | 1.11 | 1.06 | 0.461 | 0.408 | 0.94 | 1.01 | 0.893 | 0.837 | 0.918 | 0.903 | 0.88 | 0.972 | 0.828 | 0.893 | 0.794 | 0.788 | 1.04 | 1.25 | 0.398 |
| NCI-H1437 | 0.969 | 1.05 | 0.932 | 0.958 | 0.974 | 1.05 | 0.963 | 1.04 | 1.01 | 0.867 | 0.962 | 0.988 | 0.976 | 0.586 | 1.03 | 0.901 | 0.999 | 0.93 | 0.941 | 1.05 | 0.919 | 0.984 | 0.987 | 1.06 | 1.11 |
| NCI-H1563 | 0.973 | 1.04 | 0.9 | 1.04 | 1.28 | 1.02 | 1.01 | 0.993 | 1.05 | 0.914 | 1.07 | 1.03 | 0.958 | 1.01 | 0.978 | 0.987 | 0.822 | 0.698 | 1.06 | 1.06 | 0.884 | 0.92 | 1.08 |  |  |
| NCI-H1623 | 0.936 | 0.957 | 0.812 | 0.984 | 1.03 | 0.869 | 0.938 | 0.936 | 1.1 | 0.895 | 0.963 | 0.995 | 0.932 | 0.762 | 0.922 | 0.838 | 0.848 | 0.814 | 1.02 | 1.22 | 1.02 | 0.931 | 0.978 |  |  |
| NCI-H1648 | 0.914 | 1.07 |  | 0.78 | 1.09 | 1.29 | 1.08 | 0.87 | 0.932 | 0.99 | 1 | 1.15 | 0.75 | 0.768 | 0.794 | 0.764 | 0.887 | 0.737 | 0.758 | 1.27 | 0.737 |  | 0.899 |  | 0.676 |
| NCI-H1650 | 0.896 | 1.16 | 0.97 | 1.01 | 0.857 | 0.96 | 0.929 | 0.95 | 0.627 | 0.267 | 0.891 | 1.08 | 0.985 | 0.716 | 0.955 | 0.844 | 0.888 | 0.616 | 0.925 | 0.984 | 0.927 | 0.976 | 1.09 | 1.2 |  |
| NCI-H1651 | 0.989 | 1 | 0.802 | 0.942 | 1 | 1.02 | 0.98 | 1.03 | 0.956 | 0.531 | 0.931 | 1.08 | 0.968 | 0.784 | 1 | 0.85 | 0.943 | 1 | 0.956 | 1.02 | 0.952 | 0.935 | 0.969 | 1.06 | 0.495 |
| NCI-H1666 | 1.02 | 1.02 | 0.853 | 1.02 | 1.01 | 1.09 | 1.04 | 1.1 | 1.01 | 0.98 | 0.958 | 1.01 | 0.949 | 0.68 | 1.03 | 0.98 | 0.977 | 0.929 | 1.05 | 1.21 | 0.946 | 0.721 | 0.96 | 0.994 | 0.895 |
| NCI-H1703 | 0.907 | 1.05 | 0.933 | 0.994 | 0.939 | 0.767 | 0.35 | 0.276 | 0.174 | 0.194 | 0.949 | 1.04 | 1.11 | 1.02 | 1.05 | 0.98 | 0.929 | 0.812 | 0.993 | 0.929 | 0.83 | 0.869 | 0.817 | 1.18 | 0.132 |
